Results reported in US9957274B2, “Indane inhibitors of EED and methods of their use” (AbbVie Inc., priority 2016, dated 2018).

How the values were obtained:
EED = EED (Homo sapiens, UniProt O75530); test: EED TR-FRET Binding Assay (modified LanthaScreen competition assay)
Protocol: Compounds were tested in a modified LanthaScreen competition assay.
The following buffer was used to set up the binding reactions: 20 mM Tris-HCl pH 7.5, 200 mM NaCl, 0.01% Tween-20, 10 uM DTT (dithiothreitol), and 0.05% BSA (bovine serum albumin), with the DTT and BSA added fresh prior to initiating the binding assay. […] The reactions were then incubated for 1 hour at 25° C. in a humidified chamber prior to detection on the Perkin Elmer Envision plate reader using a Lanthascreen TR-FRET protocol.

Pfeiffer cells = test: CTG cell viability assay (CellTiter-Glo); type: cell-based; details: Homo sapiens, 240 h; Pfeiffer cells, 10 days with compound, CellTiter-Glo; read-out: Cell Proliferation IC50
Protocol: 1,000 cells were plated into each well of 96-well Corning CellBing cell culture plates and incubated overnight at 37° C. in a humidified CO2 incubator. […] The cell culture plates were then incubated for 10 more days. CTG cell viability assay was performed on the cell culture samples by using CellTiter-Glo® Luminescent Cell Viability Assay Kit (Promega).

Chain of EED (O75530 whole entry): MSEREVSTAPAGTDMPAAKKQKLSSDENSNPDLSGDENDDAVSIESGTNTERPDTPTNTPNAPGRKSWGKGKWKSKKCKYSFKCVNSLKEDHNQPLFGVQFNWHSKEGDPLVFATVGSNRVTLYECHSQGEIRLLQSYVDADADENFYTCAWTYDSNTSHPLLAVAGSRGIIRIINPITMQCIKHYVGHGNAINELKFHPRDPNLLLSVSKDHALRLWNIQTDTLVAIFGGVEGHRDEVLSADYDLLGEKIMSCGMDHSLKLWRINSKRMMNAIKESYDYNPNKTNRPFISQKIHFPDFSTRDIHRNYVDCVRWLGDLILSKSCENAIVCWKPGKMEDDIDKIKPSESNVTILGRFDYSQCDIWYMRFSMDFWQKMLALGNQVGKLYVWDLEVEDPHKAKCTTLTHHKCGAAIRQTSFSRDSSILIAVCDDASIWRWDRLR

IC50 (EED)	SMILES	IC50 (Pfeiffer cells)
2.5 nM	CN(C)[C@H]1CN(C2CCc3cccc(F)c32)C[C@@H]1c1cn(C)c2c(C(=O)N3CCN4CCNC(=O)C4C3)cccc12 (mixture of isomers) [Example 134, rac-8-{3-[(3S,4R)-4-(dimethylamino)-1-(7-fluoro-2,3-dihydro-1H-inden-1-yl)pyrrolidin-3-yl]-1-methyl-1H-indole-7-carbonyl}hexahydro-2H-pyrazino[1,2-a]pyrazin-1(6H)-one]	833 nM
3.53 nM	CC(=O)N1CCN(C(=O)c2ccc3c([C@H]4CN(C5CCc6cccc(F)c65)C[C@@H]4N(C)C)cn(C)c3c2)CC1 (mixture of isomers) [Example 123, rac-1-(4-{3-[(3S,4R)-4-(dimethylamino)-1-(7-fluoro-2,3-dihydro-1H-inden-1-yl)pyrrolidin-3-yl]-1-methyl-1H-indole-6-carbonyl}piperazin-1-yl)ethan-1-one]	1530 nM
5.58 nM	CN(C)[C@H]1CN(C2CCc3cccc(F)c32)C[C@@H]1c1cn(C)c2cc(C(=O)N3C[C@H](O)[C@@H](O)C3)ccc12 (mixture of isomers) [Example 114, rac-[(3S,4S)-3,4-dihydroxypyrrolidin-1-yl]{3-[(3S,4R)-4-(dimethylamino)-1-(7-fluoro-2,3-dihydro-1H-inden-1-yl)pyrrolidin-3-yl]-1-methyl-1H-indol-6-yl}methanone]	3130 nM
3.35 nM	CN(C)[C@H]1CN(C2CCc3cccc(F)c32)C[C@@H]1c1cn(C)c2c(C(=O)N3CC[C@H](O)C3)cccc12 (mixture of isomers) [Example 118, rac-{3-[(3S,4R)-4-(dimethylamino)-1-(7-fluoro-2,3-dihydro-1H-inden-1-yl)pyrrolidin-3-yl]-1-methyl-1H-indol-7-yl}[(3S)-3-hydroxypyrrolidin-1-yl]methanone]	298 nM
9.44 nM	CN(C)[C@H]1CN(C2CCc3cccc(F)c32)C[C@@H]1c1cn(C)c2c(C(=O)O)cccc12 (mixture of isomers) [Example 80, rac-3-[(3S,4R)-4-(dimethylamino)-1-(7-fluoro-2,3-dihydro-1H-inden-1-yl)pyrrolidin-3-yl]-1-methyl-1H-indole-7-carboxylic acid]	1520 nM

Continued, compound first:

SMILES	IC50 (EED)	IC50 (Pfeiffer cells)
CN(C)[C@H]1CN(C2CCc3cc(F)cc(F)c32)C[C@@H]1c1cn(C)c2ccccc12 (mixture of isomers) [Example 95, rac-(3R,4S)-1-(5,7-difluoro-2,3-dihydro-1H-inden-1-yl)-N,N-dimethyl-4-(1-methyl-1H-indol-3-yl)pyrrolidin-3-amine]	2.7 nM	1720 nM
CN(C)[C@H]1CN(C2CCc3cccc(F)c32)C[C@@H]1c1cn(C)c2c(C(=O)N3CCC[C@H]3C(N)=O)cccc12 (mixture of isomers) [Example 117, rac-1-{3-[(3S,4R)-4-(dimethylamino)-1-(7-fluoro-2,3-dihydro-1H-inden-1-yl)pyrrolidin-3-yl]-1-methyl-1H-indole-7-carbonyl}-L-prolinamide]	1.26 nM	111 nM
CN(C)[C@@H]1CN(C2CCc3cccc(F)c32)C[C@H]1c1ccc(C(N)=O)cc1 (mixture of isomers) [Example 35, rac-4-[(3R,4S)-4-(dimethylamino)-1-(7-fluoro-2,3-dihydro-1H-inden-1-yl)pyrrolidin-3-yl]benzamide]	6.8 nM	> 10000 nM
CN(C)[C@H]1CN(C2CCc3cccc(F)c32)C[C@@H]1c1cn(C)c2c(C(=O)O)cccc12 (stereo partly drawn) [Example 79, 3-[(3S,4R)-4-(dimethylamino)-1-(7-fluoro-2,3-dihydro-1H-inden-1-yl)pyrrolidin-3-yl]-1-methyl-1H-indole-7-carboxylic acid]	2.45 nM	1020 nM
CN(C)[C@H]1CN(C2C[C@H](F)c3cccc(F)c32)C[C@@H]1c1ccc(S(C)(=O)=O)cc1 (mixture of isomers) [Example 30, rac-(3R,4S)-1-[(3S)-3,7-difluoro-2,3-dihydro-1H-inden-1-yl]-4-[4-(methanesulfonyl)phenyl]-N,N-dimethylpyrrolidin-3-amine]	11.4 nM	3100 nM
